Where two headings read alike, the source gives them in different places.

Assay [1] has as its system TNF-α levels in LPS-stimulated human whole blood. Description: LPS-stimulation of human whole blood (TNF-α levels). Type of assay: cell-based. The settings on record: Homo sapiens; IC50 range; TNF-α after LPS 100 ng/ml, 6 hours. As for the experimental part:
Whole blood is taken by venous puncture using heparinised vacutainers (Becton Dickinson) and diluted in an equal volume of RPMI1640 tissue culture media (Sigma). 100 μl is then plated in V-bottomed 96 well tissue culture treated plates. 2 Hours after the addition of the inhibitor in 100 μl of RPMI1640 media, the blood is stimulated with LPS (E. Coli strain 005:B5, Sigma) at a final concentration of 100 ng/ml and incubated at 37° C. in 5% CO2 for 6 hours. TNF-α levels are measured from cell-free supernatants by sandwich ELISA (R&D Systems #QTA00B).

Assay [2] deals with TNFα release from LPS stimulated THP-1 (hCE-1 +ve) cells. Description: LPS-stimulation of THP-1 cells (TNF-α release). Type of assay: cell-based, human. Conditions: IC50 range, TNF-α after LPS 1 μg/ml, 6 hours, read-out: THP-1 Assay. As for the experimental part:
THP-1 cells are plated in […] at a density of 4×10^4 cells/well in V-bottomed 96 well tissue culture treated plates and incubated at 37° C. in 5% CO2 for 16 hours. 2 Hours after the addition of the inhibitor in 100 μl of tissue culture media, the cells are stimulated with LPS (E. Coli strain 005:B5, Sigma) at a final concentration of 1 μg/ml and incubated at 37° C. in 5% CO2 for 6 hours. TNF-α levels are measured from cell-free supernatants by sandwich ELISA (R&D Systems #QTA00B).

In assay [3] the target is T1, human recombinant his-tagged HSP90α (Homo sapiens, UniProt P07900).
T1 construct: purchased Prospec Technogene #HSP90
Description: HSP90 enzyme assay (HTRF, competition with biotinylated Geldanamycin). Type of assay: binding. The settings on record: IC50 range; read-out: Enzyme Assay. In a few lines:
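HTRF competition: compounds (5000 to 0.3 nM, 0.5% DMSO) displace 40 nM biotinylated geldanamycin from 40 nM his-tagged HSP90α. Binding was read via Eu-cryptate anti-his/streptavidin-XL FRET after 20 h at room temperature in Hepes pH 7.3 buffer. IC50 was fitted against controls.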

Consider `CC(C)c1cc(C(=O)N2CCC(NC(C)(C)C(=O)OC3CCCC3)CC2)c(O)cc1O` [Example 2, cyclopentyl N-(1-{[2,4-dihydroxy-5-(propan-2-yl)phenyl]carbonyl}piperidin-4-yl)-2-methylalaninate], for which the IC50 in assay [1] was 100 to 1000 nM; in assay [2] (Homo sapiens, THP-1), 100 to 1000 nM; in assay [3] it was under 100 nM.

Consider `CC(C)c1cc(C(=O)N2CCC(N[C@H](C(=O)OC3CCCC3)c3ccccc3)CC2)c(O)cc1O` [Example 4, cyclopentyl (2S)-[(1-{[2,4-dihydroxy-5-(propan-2-yl)phenyl]carbonyl}piperidin-4-yl)amino](phenyl)ethanoate], for which the IC50 in assay [1] was over 1000 nM; in assay [2] (Homo sapiens, THP-1), over 1000 nM; in assay [3] it was under 100 nM.

Consider `CC(C)c1cc(C(=O)N2CCC(N[C@@H](C)C(=O)OC3CCCC3)CC2)c(O)cc1O` [Example 5, cyclopentyl N-(1-{[2,4-dihydroxy-5-(propan-2-yl)phenyl]carbonyl}piperidin-4-yl)-L-alaninate], for which the IC50 in assay [1] is 100 to 1000 nM; in assay [2] (Homo sapiens, THP-1), 100 to 1000 nM; in assay [3], under 100 nM.

Turning to `CC(C)c1cc(C(=O)N2CCC(N[C@@H](Cc3ccccc3)C(=O)OC3CCCC3)CC2)c(O)cc1O` [Example 9, cyclopentyl N-(1-{[2,4-dihydroxy-5-(propan-2-yl)phenyl]carbonyl}piperidin-4-yl)-L-phenylalaninate], the IC50 in assay [1] is 100 to 1000 nM; in assay [2] (Homo sapiens, THP-1), 100 to 1000 nM; in assay [3], under 100 nM.

As to `CCCC[C@H](NC1CCN(C(=O)c2cc(C(C)C)c(O)cc2O)CC1)C(=O)OC1CCCC1` [Example 10, cyclopentyl N-(1-{[2,4-dihydroxy-5-(propan-2-yl)phenyl]carbonyl}piperidin-4-yl)-L-norleucinate], the IC50 in assay [1] was over 1000 nM; in assay [2] (Homo sapiens, THP-1), 100 to 1000 nM; in assay [3], under 100 nM.

Turning to `CC(C)c1cc(C(=O)N2CCC(N[C@@H](CC3CCCCC3)C(=O)OC3CCCC3)CC2)c(O)cc1O` [Example 13, cyclopentyl 3-cyclohexyl-N-(1-{[2,4-dihydroxy-5-(propan-2-yl)phenyl]carbonyl}piperidin-4-yl)-L-alaninate], the IC50 is under 100 nM in assay [1]; 100 to 1000 nM in assay [2] (Homo sapiens, THP-1); under 100 nM in assay [3].

For the compound `CC(C)C[C@H](NC1CCN(C(=O)c2cc(C(C)C)c(O)cc2O)C1)C(=O)OC1CCCC1` (stereo partly drawn) [Example 20, cyclopentyl N-(1-{[2,4-dihydroxy-5-(propan-2-yl)phenyl]carbonyl}pyrrolidin-3-yl)-L-leucinate], the IC50 in assay [1] was over 1000 nM; in assay [2] (Homo sapiens, THP-1), over 1000 nM; in assay [3], under 100 nM.

Turning to `CC(C)C[C@H](NCC1CCN(C(=O)c2cc(C(C)C)c(O)cc2O)CC1)C(=O)OC1CCCC1` [Example 21, cyclopentyl N-[(1-{[2,4-dihydroxy-5-(propan-2-yl)phenyl]carbonyl}piperidin-4-yl)methyl]-L-leucinate], the IC50 in assay [1] was 100 to 1000 nM; in assay [2] (Homo sapiens, THP-1), under 100 nM; in assay [3], under 100 nM.

As for `CC(C)c1cc(C(=O)N2CCC(CN[C@@H](C)C(=O)OC3CCCC3)CC2)c(O)cc1O` [Example 22, cyclopentyl N-[(1-{[2,4-dihydroxy-5-(propan-2-yl)phenyl]carbonyl}piperidin-4-yl)methyl]-L-alaninate], the IC50 is under 100 nM in assay [1]; under 100 nM in assay [2] (Homo sapiens, THP-1); under 100 nM in assay [3].

In the case of `CC(C)c1cc(C(=O)N2CCC(CN[C@@H](Cc3ccccc3)C(=O)OC3CCCC3)CC2)c(O)cc1O` [Example 23, cyclopentyl N-[(1-{[2,4-dihydroxy-5-(propan-2-yl)phenyl]carbonyl}piperidin-4-yl)methyl]-L-phenylalaninate], the IC50 is 100 to 1000 nM in assay [1]; 100 to 1000 nM in assay [2] (Homo sapiens, THP-1); under 100 nM in assay [3].

Consider `CC(C)C[C@@H](NCC1CCN(C(=O)c2cc(C(C)C)c(O)cc2O)CC1)C(=O)OC(C)(C)C` [Example 27, tert-butyl N-[(1-{[2,4-dihydroxy-5-(propan-2-yl)phenyl]carbonyl}piperidin-4-yl)methyl]-D-leucinate], for which the IC50 in assay [2] (Homo sapiens, THP-1) is over 1000 nM; in assay [3] it was under 100 nM.

`CC(C)C[C@@H](NCC1CCN(C(=O)c2cc(C(C)C)c(O)cc2O)CC1)C(=O)OC1CCCC1` [Example 28, cyclopentyl N-[(1-{[2,4-dihydroxy-5-(propan-2-yl)phenyl]carbonyl}piperidin-4-yl)methyl]-D-leucinate]: the IC50 was 100 to 1000 nM in assay [1]; 100 to 1000 nM in assay [2] (Homo sapiens, THP-1); under 100 nM in assay [3].

With `CC(C)c1cc(C(=O)N2CCC(CN[C@H](C(=O)OC3CCCC3)C3CCCCC3)CC2)c(O)cc1O` [Example 30, cyclopentyl (2S)-cyclohexyl{[(1-{[2,4-dihydroxy-5-(propan-2-yl)phenyl]carbonyl}piperidin-4-yl)methyl]amino}ethanoate], the IC50 in assay [2] (Homo sapiens, THP-1) is over 1000 nM; in assay [3] it was 100 to 1000 nM.

As to `CC(C)c1cc(C(=O)N2CCC(CNC(C)(C)C(=O)OC3CCCC3)CC2)c(O)cc1O` [Example 32, cyclopentyl N-[(1-{[2,4-dihydroxy-5-(propan-2-yl)phenyl]carbonyl}piperidin-4-yl)methyl]-2-methyl-L-alaninate], the IC50 in assay [1] is 100 to 1000 nM; in assay [2] (Homo sapiens, THP-1) it was 100 to 1000 nM; in assay [3], under 100 nM.

As to `CC(C)c1cc(C(=O)N2CCC(CN[C@@H](COC(C)(C)C)C(=O)OC(C)(C)C)CC2)c(O)cc1O` [Example 35, tert-butyl O-tert-butyl-N-[(1-{[2,4-dihydroxy-5-(propan-2-yl)phenyl]carbonyl}piperidin-4-yl)methyl]-L-serinate], the IC50 was over 1000 nM in assay [2] (Homo sapiens, THP-1) and under 100 nM in assay [3].

As for `CC(C)c1cc(C(=O)N2CCC(CN[C@@H](CO)C(=O)OC(C)(C)C)CC2)c(O)cc1O` [Example 37, tert-butyl N-[(1-{[2,4-dihydroxy-5-(propan-2-yl)phenyl]carbonyl}piperidin-4-yl)methyl]-L-serinate], the IC50 was 100 to 1000 nM in assay [2] (Homo sapiens, THP-1) and under 100 nM in assay [3].

For the compound `CC(C)c1cc(C(=O)N2CCC(CCN[C@@H](C)C(=O)OC3CCCC3)CC2)c(O)cc1O` [Example 39, cyclopentyl N-[2-(1-{[2,4-dihydroxy-5-(propan-2-yl)phenyl]carbonyl}piperidin-4-yl)ethyl]-L-alaninate], the IC50 was under 100 nM in assay [2] (Homo sapiens, THP-1) and under 100 nM in assay [3].

Regarding `CC(C)C[C@H](NCCC1CCN(C(=O)c2cc(C(C)C)c(O)cc2O)CC1)C(=O)OC(C)(C)C` [Example 42, tert-butyl N-[2-(1-{[2,4-dihydroxy-5-(propan-2-yl)phenyl]carbonyl}piperidin-4-yl)ethyl]-L-leucinate], the IC50 in assay [2] (Homo sapiens, THP-1) was 100 to 1000 nM; in assay [3], under 100 nM.

On to `CC(C)c1cc(C(=O)N2CCC(CCN[C@H](C(=O)OC3CCCC3)C(C)C)CC2)c(O)cc1O` [Example 46, cyclopentyl N-[2-(1-{[2,4-dihydroxy-5-(propan-2-yl)phenyl]carbonyl}piperidin-4-yl)ethyl]-L-valinate], for which the IC50 in assay [2] (Homo sapiens, THP-1) is over 1000 nM; in assay [3], under 100 nM.

In the case of `CC(C)c1cc(C(=O)N2CCC(CCN[C@@H](CO)C(=O)OC3CCCC3)CC2)c(O)cc1O` [Example 47, cyclopentyl N-[2-(1-{[2,4-dihydroxy-5-(propan-2-yl)phenyl]carbonyl}piperidin-4-yl)ethyl]-L-serinate], the IC50 was 100 to 1000 nM in assay [2] (Homo sapiens, THP-1) and under 100 nM in assay [3].

As to `CC(C)c1cc(C(=O)N2CCC(CCN[C@H](C(=O)OC3CCCC3)C3CCCCC3)CC2)c(O)cc1O` [Example 48, cyclopentyl (2S)-cyclohexyl{[2-(1-{[2,4-dihydroxy-5-(propan-2-yl)phenyl]carbonyl}piperidin-4-yl)ethyl]amino}ethanoate], the IC50 in assay [2] (Homo sapiens, THP-1) was over 1000 nM; in assay [3], 100 to 1000 nM.

Regarding `CC(C)c1cc(C(=O)N2CCC(CCN[C@H](C(=O)OC3CCCC3)c3ccccc3)CC2)c(O)cc1O` [Example 51, cyclopentyl (2S)-{[2-(1-{[2,4-dihydroxy-5-(propan-2-yl)phenyl]carbonyl}piperidin-4-yl)ethyl]amino}(phenyl)ethanoate], the IC50 in assay [2] (Homo sapiens, THP-1) is 100 to 1000 nM; in assay [3], under 100 nM.

In the case of `CC(C)C[C@H](NCCCNCC1CCN(C(=O)c2cc(C(C)C)c(O)cc2O)CC1)C(=O)OC1CCCC1` [Example 126], the IC50 in assay [2] (Homo sapiens, THP-1) is over 1000 nM; in assay [3] it was under 100 nM.

For “cyclopentyl N-[(1-{[2,4-dihydroxy-5-(propan-2-yl)phenyl]carbonyl}piperidin-4-yl)methyl]-L-valinate [Example 29]”, the figures for the IC50 in assay [2] and in assay [3] were over 1000 nM and under 100 nM, respectively.
